In publication PMC12655351, “Synthesis and Anticancer Activity Evaluation of New 5-((5-Nitrofuran-2-yl)allylidene)-2-thioxo-4-thiazolidinones” (Pharmaceuticals, 2025):
Values joined by “and” are separate entries in the source; they are usually repeats but may differ in a detail not shown here. Equal entries are not always repeated. Where two headings read alike, the source gives them in different places.

How the values were obtained:
BT-549 [1] = conditions: for TGI: BT-549, 48 h
MCF7 = experiment: NCI-60 SRB screen; conditions: MCF7, 48 h
SK-MEL-5 = conditions: for TGI: SK-MEL-5, 48 h
NCI-H322M = experiment: NCI-60 SRB screen; conditions: 48 h; for CC50: read-out: LC50, NCI-H322M, 48 h
NCI-H460 = experiment: NCI-60 SRB screen; conditions: NCI-H460, 48 h; for CC50: read-out: LC50
RXF 393 = experiment: NCI-60 SRB screen; conditions: RXF 393, 48 h; for GI50: Homo sapiens
BT-549 [2] = experiment: cells; conditions: Homo sapiens, BT-549, 48 h; for CC50: read-out: LC50, BT-549, 48 h
SF-268 = experiment: cells; conditions: Homo sapiens, SF-268, 48 h; for CC50: read-out: LC50, SF-268, 48 h
786-0 = experiment: cells; conditions: Homo sapiens, 786-0, 48 h
ACHN = experiment: NCI-60 SRB screen; conditions: 48 h; for CC50: read-out: LC50, ACHN, 48 h; for growth GP: 10 μM
[3] = tested on: Non-small cell lung cancer; experiment: cells; conditions: Homo sapiens; for GI50: read-out: MG_MID GI50; for CC50: read-out: MG_MID LC50
Colon cancer = experiment: NCI-60 SRB screen, subpanel; conditions: for MG_MID TGI: Colon cancer subpanel; for GI50 / CC50: Homo sapiens; for GI50: read-out: MG_MID GI50; for CC50: read-out: MG_MID LC50
CCRF-CEM [4] = conditions: 48 h
Melanoma = Melanoma subpanel
Renal Cancer = Renal Cancer subpanel
RPMI-8226 = experiment: cells; conditions: Homo sapiens, RPMI-8226, 48 h; for CC50: read-out: LC50
CCRF-CEM [5] = experiment: cells; conditions: Homo sapiens, 48 h
Breast cancer = experiment: cells; conditions: Homo sapiens; for GI50: read-out: MG_MID GI50; for CC50: read-out: MG_MID LC50
K-562 = experiment: cells; conditions: Homo sapiens, K562, 48 h; for GI50: K-562, 48 h; for CC50: read-out: LC50
NCI-H23 = experiment: cells; conditions: Homo sapiens, NCI-H23, 48 h; for CC50: read-out: LC50, NCI-H23, 48 h
[6] = tested on: panel of 60 cancer cell lines; conditions: for Positive cytostatic effect (ratio of cell lines with GP from 0 to 50 to total number) / Mean growth: 10 μM, 48 h; for Mean growth: one dose; for MG_MID TGI: full panel (last line of Table S2)
SF-539 = conditions: for TGI: SF-539, 48 h; for growth GP: SF-539, 10 μM, 48 h
SK-MEL-2 = experiment: NCI-60 SRB screen; conditions: SK-MEL-2, 48 h; for GI50 / CC50: Homo sapiens; for CC50: read-out: LC50, SK-MEL-2, 48 h
HS 578T = conditions: 48 h
HT29 = experiment: cells; conditions: Homo sapiens, HT-29, 48 h; for GI50: HT29, 48 h
MDA-MB-435 = experiment: cells; conditions: Homo sapiens, MDA-MB-435, 48 h; for CC50: read-out: LC50, MDA-MB-435, 48 h
SNB-19 = experiment: NCI-60 SRB screen; conditions: SNB-19, 48 h; for CC50: read-out: LC50, SNB-19, 48 h

## CCCC(C(=O)O)N1C(=O)/C(=C/C=C/c2ccc([N+](=O)[O-])o2)SC1=S (stereo not drawn) [4b, 2-((Z)-5-((E)-3-(5-Nitrofuran-2-yl)allylidene)-4-oxo-2-thioxothiazolidin-3-yl)pentanoic acid]
BT-549 [1]
  TGI: 3.37 µM
MCF7; Homo sapiens
  GI50: 1600 nM
MCF7
  TGI: 3.70 µM
SK-MEL-5
  TGI: 2.79 µM
NCI-H322M
  TGI: 14.2 µM
NCI-H322M; Homo sapiens
  GI50: 3720 nM
  CC50: 38.1 µM
NCI-H460; Homo sapiens
  GI50: 1700 nM
  CC50: 6.23 µM
NCI-H460
  TGI: 3.25 µM
RXF 393
  GI50: 1890 nM
  TGI: 3.40 µM
BT-549 [2]
  GI50: 1670 nM
  CC50: 6.77 µM
CAKI-1; CAKI-1, 48 h
  TGI: 3.70 µM
UACC-257; UACC-257, 48 h
  TGI: 4.82 µM
SF-268
  GI50: 2040 nM
  CC50: 9.72 µM
786-0
  GI50: 3710 nM
ACHN
  TGI: 3.44 µM
ACHN; Homo sapiens
  GI50: 1720 nM
  CC50: 6.87 µM
[3]
  GI50: 2370 nM
  CC50: 29.3 µM
Colon cancer
  MG_MID TGI: 3.41 µM
  GI50: 1730 nM
  CC50: 6.48 µM
A498; A498, 48 h
  TGI: 7.21 µM
CCRF-CEM [4]
  TGI: 7.26 µM
Melanoma
  MG_MID TGI: 3.41 µM
Renal Cancer
  MG_MID TGI: 4.25 µM
RPMI-8226
  GI50: 1790 nM
  CC50: > 100 µM
CCRF-CEM [5]
  GI50: 2270 nM
OVCAR-4; OVCAR-4, 48 h
  TGI: 19.1 µM
Breast cancer
  GI50: 1850 nM
  CC50: 38.3 µM
K-562
  GI50: 2770 nM
  CC50: > 100 µM
NCI-H23
  GI50: 1970 nM
  CC50: 8.57 µM
[6]
  Positive cytostatic effect (ratio of cell lines with GP from 0 to 50 to total number): 4/55
  Mean growth: 36.52%
  MG_MID TGI: 5.85 µM
SF-539
  TGI: 4.77 µM
DU-145; DU-145, 48 h
  TGI: 6.42 µM
SK-MEL-2
  GI50: 1530 nM
  CC50: 5.89 µM
  TGI: 3.00 µM
HS 578T
  TGI: 10.1 µM
HT29
  GI50: 1950 nM
HT29; read-out: LC50, HT29, 48 h
  CC50: 7.45 µM
MDA-MB-435
  GI50: 1620 nM
  CC50: 6.77 µM
SNB-19; Homo sapiens
  GI50: 2010 nM
  CC50: 8.45 µM
SNB-19
  TGI: 4.12 µM
OVCAR-8; OVCAR-8, 48 h
  TGI: 4.64 µM

## O=C(O)CCN1C(=O)/C(=C/C=C/c2ccc([N+](=O)[O-])o2)SC1=S [12b, 3-((Z)-5-((E)-3-(5-Nitrofuran-2-yl)allylidene)-4-oxo-2-thioxothiazolidin-3-yl)propanoic acid]
BT-549 [1]
  TGI: 2.88 µM
MCF7; Homo sapiens
  GI50: 460 nM
MCF7
  TGI: 2.10 µM
SK-MEL-5; SK-MEL-5, 10 μM, 48 h
  growth GP: -97.62%
SK-MEL-5
  TGI: 2.24 µM
NCI-H322M
  TGI: 19.8 µM
NCI-H322M; Homo sapiens
  GI50: 7060 nM
  CC50: 44.7 µM
NCI-H460; Homo sapiens
  GI50: 1330 nM
  CC50: 6.46 µM
NCI-H460
  TGI: 2.93 µM
RXF 393
  GI50: 1580 nM
  TGI: 3.02 µM
BT-549 [2]
  GI50: 1350 nM
  CC50: 6.13 µM
CAKI-1; CAKI-1, 48 h
  TGI: 2.74 µM
UACC-257; UACC-257, 48 h
  TGI: 4.08 µM
SF-268
  GI50: 1440 nM
  CC50: 7.02 µM
786-0
  GI50: 1380 nM
ACHN
  growth GP: -99.00%
  TGI: 2.97 µM
ACHN; Homo sapiens
  GI50: 1610 nM
  CC50: 5.46 µM
[3]
  GI50: 2590 nM
  CC50: 25.9 µM
Colon cancer
  MG_MID TGI: 2.93 µM
A498; A498, 10 μM, 48 h
  growth GP: -96.94%
A498; A498, 48 h
  TGI: 27.4 µM
CCRF-CEM [4]
  TGI: 0.87 µM
Melanoma
  MG_MID TGI: 2.60 µM
Renal Cancer
  MG_MID TGI: 6.01 µM
RPMI-8226
  GI50: 1230 nM
  CC50: > 100 µM
CCRF-CEM [5]
  GI50: 250 nM
OVCAR-4; OVCAR-4, 48 h
  TGI: 3.79 µM
Breast cancer
  GI50: 1090 nM
  CC50: 37.4 µM
K-562
  GI50: 340 nM
  CC50: > 100 µM
NCI-H23
  GI50: 1690 nM
  CC50: 6.7 µM
[6]
  Positive cytostatic effect (ratio of cell lines with GP from 0 to 50 to total number): 4/55
  Mean growth: -62.05%
  MG_MID TGI: 4.69 µM
SF-539
  growth GP: -96.95%
  TGI: 3.65 µM
DU-145; DU-145, 48 h
  TGI: 10.6 µM
SK-MEL-2
  GI50: 1440 nM
  CC50: 5.68 µM
  TGI: 2.86 µM
HS 578T
  TGI: 7.93 µM
MDA-MB-435
  GI50: 1160 nM
  CC50: 5.32 µM
SNB-19; Homo sapiens
  GI50: 2300 nM
  CC50: 22.9 µM
SNB-19
  TGI: 6.37 µM
OVCAR-8; OVCAR-8, 48 h
  TGI: 7.11 µM

## O=C(O)CCCCCN1C(=O)/C(=C/C=C/c2ccc([N+](=O)[O-])o2)SC1=S [14b, 6-((Z)-5-((E)-3-(5-nitrofuran-2-yl)allylidene)-4-oxo-2-thioxothiazolidin-3-yl)hexanoic acid]
BT-549 [1]; BT-549, 10 μM, 48 h
  growth GP: -97.16%
BT-549 [1]; human, 48 h
  CC50: 3.03 µM
MCF7; Homo sapiens
  GI50: 390 nM
MCF7
  GI50: 440 nM
  TGI: 1.82 µM and 1.99 µM
SK-MEL-5
  TGI: 1.98 µM and 3.14 µM
SK-MEL-5; human, 48 h
  CC50: 6.38 µM
NCI-H322M
  GI50: 1820 nM
  TGI: 3.39 µM and 3.55 µM
NCI-H322M; Homo sapiens
  GI50: 1680 nM
  CC50: 6.84 µM
NCI-H460; Homo sapiens
  GI50: 1000 nM
  CC50: 5.54 µM
NCI-H460
  GI50: 630 nM
  TGI: 2.36 µM and 2.31 µM
BT-549 [2]
  CC50: 5.07 µM
CAKI-1; CAKI-1, 10 μM, 48 h
  growth GP: -96.43%
CAKI-1; CAKI-1, 48 h
  GI50: 1400 nM
  TGI: 2.09 µM and 2.72 µM
UACC-257; UACC-257, 48 h
  GI50: 1400 nM
  TGI: 3.16 µM and 3.08 µM
UACC-257; human, 48 h
  CC50: 6.81 µM
SF-268
  GI50: 1260 nM
  CC50: 5.82 µM
786-0
  GI50: 610 nM
ACHN
  growth GP: -99.76%
  GI50: 1210 nM
  TGI: 2.82 µM and 2.46 µM
ACHN; Homo sapiens
  GI50: 1500 nM
  CC50: 5.31 µM
[3]
  GI50: 1480 nM
  CC50: 21.8 µM
Colon cancer
  MG_MID TGI: 1.92 µM
  GI50: 870 nM
  CC50: 11.7 µM
A498; A498, 48 h
  GI50: 10.2 µM
  TGI: 20.8 µM and 22.8 µM
CCRF-CEM [4]
  GI50: 270 nM
  TGI: 0.57 µM and 0.96 µM
Melanoma
  MG_MID TGI: 1.82 µM
Renal Cancer
  MG_MID TGI: 4.63 µM
RPMI-8226
  GI50: 330 nM
CCRF-CEM [5]
  GI50: 180 nM
OVCAR-4; OVCAR-4, 10 μM, 48 h
  growth GP: -97.80%
OVCAR-4; OVCAR-4, 48 h
  GI50: 1490 nM
  TGI: 2.69 µM and 2.84 µM
Breast cancer
  GI50: 650 nM
  CC50: 36.5 µM
K-562
  GI50: 200 nM
  CC50: > 100 µM
NCI-H23
  GI50: 1530 nM
  CC50: 6.29 µM
[6]
  Positive cytostatic effect (ratio of cell lines with GP from 0 to 50 to total number): 4/55
  Mean growth: -67.89%
  MG_MID TGI: 3.58 µM
SF-539
  growth GP: -98.05%
DU-145; DU-145, 10 μM, 48 h
  growth GP: -98.04%
DU-145; DU-145, 48 h
  GI50: 1590 nM
  TGI: 2.87 µM and 3.18 µM
DU-145; human, 48 h
  CC50: 6.35 µM
SK-MEL-2
  CC50: 6.01 µM
  TGI: 2.95 µM and 2.33 µM
HS 578T
  GI50: 790 nM
  TGI: 6.44 µM and 7.76 µM
HT29
  GI50: 1190 nM
MDA-MB-435
  GI50: 420 nM
  CC50: 4.47 µM
SNB-19; Homo sapiens
  GI50: 1760 nM
  CC50: 7.43 µM
SNB-19
  GI50: 1450 nM
  TGI: 3.62 µM and 3.11 µM
OVCAR-8; OVCAR-8, 48 h
  GI50: 300 nM
OVCAR-8; human, 48 h
  CC50: 9.71 µM
